Like-named read-outs stand apart in the source and are kept apart here.
Assays:
urinary elimination = assay: Diuretic: volume of urine in mouse; assay type: in vivo; conditions: 4 hours, versus controls, read-out: Percentage increase in urinary elimination; for change in vivo at 50 mg/kg: 50 mg/kg/PO
Description: The compounds of formula (I) administered orally to a mouse simultaneously with a volume of 1 ml of sodium chloride isotonic solute per 25 g of body weight are able to cause an increase of the volume of urine given compared with controls, this volume being measured for the 4 hours following administration.

[1] = tested on: gastric ulcers (Shay ulcers); assay: Antiulcerous: gastric ulcers caused in a rat by ligature of the pylorus (Shay ulcers); assay type: in vivo; conditions: 50 mg/kg, intraduodenal
Description: Compounds of formula (I) administered intraduodenally reduce the size of gastric ulcers caused in a rat by ligature of the pylorus (Shay ulcers). As examples, the intradeuodenal administration of 50 mg/kg of the compounds of code numbers 72143 and 7251 bring about a 70% and 65% reduction respectively of the Shay ulcer.

[2] = tested on: isolated duodenum of a rat (barium chloride); assay: Spasmolytic: contraction by barium chloride of isolated duodenum of a rat
Description: Compounds of formula I, introduced in the survival medium, are capable of opposing the contacting action of barium chloride on the isolated duodenum of a rat. This activity is determined either by taking papaverine as the standard or by calculating the DE50 of the compound tested.

[3] = tested on: ptosis caused by reserpine; assay: Anti-depressive: antagonism against ptosis caused by intravenous reserpine; assay type: in vivo; conditions: for ED50: po, Table XII, read-out: Antagonism against ptosis caused by reserpine, DE50
Description: (§1) In this regard, the compounds of formula I differ unexpectedly from the compounds of U.S. Pat. No. 3,726,900, as shown by comparative testing.
(§2) The anti-depressive properties of additional analog compounds were tested by the same tests. In these tests, the comparison compounds had the formula [drawing 28] The specific compounds tested and the test results are indicated in Table XIII.

mice = assay: Acute toxicity / mortality, oral, mice; assay type: in vivo; conditions: oral; Table XII
Excerpt: (§3) As is shown by the preceding results and by those given in Table XIV below, the difference between pharmacologically active doses and lethal doses is sufficiently great to allow the use of compounds of formula (I) in therapeutics.

[4] = Acute toxicity / mortality, oral, mice; assay type: in vivo; conditions: mouse, in vivo; for mortality: read-out: Percentage of mortality with mice; for LD50: mice, oral, Table XI, read-out: LD50 (mice)
Excerpt: as §3

[5] = tested on: ventricular fibrillations caused by inhaling chloroform; assay: Antiarythmic: ventricular fibrillations caused by inhaling chloroform in mouse; assay type: in vivo; conditions: ip, intraperitoneal, read-out: Antagonism to fibrillations caused by chloroform with a mouse, DE50
Excerpt: Administered intraperitoneally, the compounds of formula (I) are able to protect the mouse against ventricular fibrillations caused by inhaling chloroform.

[6] = tested on: painful stretchings following intraperitoneal injection of acetic acid; assay: Analgesic: painful stretchings following intraperitoneal acetic acid in mouse; assay type: in vivo; conditions: 100 mg/kg/PO, read-out: Percentage reduction in the number of painful stretchings
Excerpt: The compounds of formula (I) administered orally to a mouse are capable of reducing the number of painful stretchings following the intraperitoneal injection of acetic acid.

[7] = tested on: bronchoconstrictions provoked by serotonine; assay: Antiserotonine: bronchoconstrictions provoked by intravenous serotonine in guinea pigs (Konzett and Rossler test); assay type: in vivo; conditions: Cavia porcellus, serotonine bronchoconstriction, read-out: Test of Konzett and Rossler DE50
Excerpt: (§4) For purposes of comparison, compounds of the formula (I) were compared, as to their antiserotonine properties, with a respresentative sampling of compounds disclosed in U.S. Pat. No. 3,726,900. The comparison compounds tested have the formula [drawing 23]

[8] = tested on: lethal effect of yohimbine; assay: Anti-depressive: potentialization of lethal effect of yohimbine; assay type: in vivo; conditions: Table XII
[9] = tested on: respiratory depression caused by morphine; assay: Respiratory analeptic: respiratory depression caused by morphine in anaesthetized guinea pig; assay type: in vivo; conditions: 5 mg/kg/IV
Description: The compounds of formula (I) administered intravenously to an anaesthetized guinea pig are capable of opposing respiratory depression caused by morphine. As an example, with a dose of 5 mg/kg/IV, compound 70358 increased respiratory frequency by 65%.

[10] = tested on: lethal effect of yohimbine; assay: Anti-depressive: potentialization of lethal effect of yohimbine; assay type: in vivo; conditions: at 100 mg/kg/PO
Description: as §1, §2

[11] = tested on: cough caused by stimulation of the upper laryngeal nerve; assay: Anti-cough: cough caused by stimulation of the upper laryngeal nerve in an anaesthetized cat; assay type: in vivo; conditions: 25 mg/kg/ID
[12] = tested on: isolated fundus of rats (serotonine); assay: Antiserotonine: contractions of the isolated fundus of rats provoked by serotonine; conditions: in vitro
Excerpt: as §4

[13] = tested on: coronary vessels of the isolated heart of a guinea pig; assay: Vasodilatory: flow in coronary vessels of isolated heart of a guinea pig; conditions: 0.5 μg/ml in perfusion liquid
Description: The compounds of formula (I) are able to increase the flow in the coronary vessels of the isolated heat of a guinea pig when they are added to the perfusion liquid of this organ. As an example, by adding 0.5 μg/ml of the compound code number 71562 to the perfusion liquid of the isolated heart of a guinea pig, a 45% increase in the flow of the coronary vessels was observed.

[14] = tested on: explorations in the escape enclosure; assay: Sedative: number of explorations in the escape enclosure, mouse; assay type: in vivo; conditions: 100 mg/kg/PO
Description: The compounds of formula (I) administered orally to a mouse reduce the number of explorations in the escape enclosure. As examples, the administration of 100 mg/kg/PO of the compounds of code numbers 71562 and 72142 bring about a 40% reduction in the number of explorations in the escape enclosure in each case.

[15] = tested on: isolated ileum of a guinea pig (histamine); assay: Antihistamine: contraction by histamine of isolated ileum of a guinea pig
Description: The compounds of formula (I) introduced in the survival medium are able to oppose the contracting action of histamine on the isolated ileum of a guinea pig. This activity is calculated by the DE50 of the tested compounds.

[16] = tested on: local edema caused by carraghenine; assay: Antiinflammatory: local plantar edema caused by carraghenine in rat; assay type: in vivo; conditions: 30 mg/kg/PO
Excerpt: These properties bring about a reduction of the local edema, caused by injecting a rat under the plantar with a phlogogenic agent such as carraghenine, following oral administration of compounds of formula (I).

[17] = at 50 mg/kg/PO, result in words

With `CN(C)C(=O)CN1CCN(CC2COC3(O2)c2ccccc2C=Cc2ccccc23)CC1` (centres unmarked) [compound 7251] the change in vivo at 50 mg/kg (urinary elimination) was 45%, the “Reduction of the Shay ulcer” value [1] was 65% and the “DE50 (spasmolytic)” value [2] was 3.50 µg/mL. The “Antagonism against ptosis caused by reserpine” value (from here on “Antagonism … by reserpine”) [3, 17] was “Inactive”, the LD50 (mice) was over 2000 mg/kg/P.O and the mortality ([4]; 2000 mg/kg/PO) was 0%. It also gave an LD50 [4] of over 2000 mg/kg, an ED50 [5] of 100 mg/kg and an inhibition in vivo at 100 mg/kg [6] of 50%.
For `CN(C)CC1COC2(O1)c1ccccc1CCc1ccccc12` (centres unmarked) [compound 69257, reference compound], the ED50 [7] was 0.4 mg/kg, the ED50 [3] was 35 mg/kg and the LD50 [4] was 550 mg/kg. The “Potentialization of lethal effect of yohimbine, DE50” value [8] was 10 mg/kg/PO.
Compound `CN(C)CC1COC2(O1)c1ccccc1C=Cc1ccccc12` (centres unmarked) [compound 70312, reference compound] has an ED50 [7] of 0.43 mg/kg, an ED50 [3] of 13 mg/kg and an LD50 [4] of 480 mg/kg. For the same compound, the “Potentialization of lethal effect of yohimbine, DE50” value [8] was 46 mg/kg/PO.
For `CN1CCN(CC2COC3(O2)c2ccccc2CCc2ccccc23)CC1` (centres unmarked) [compound 70358], the “Increase in respiratory frequency” value [9] was 65%, the “Potentialization of lethal effect of yohimbine” value [10] was 40% and the Spasmolytic activity ([2]; relative to papaverine as the standard) was 1.5 × papaverine. For the same compound, the “Antagonism … by reserpine” value ([3]; at 100 mg/kg/PO) was “Inactive”, the mortality ([4]; 1000 mg/kg/PO) was about 50% and the LD50 [4] was 1000 mg/kg. For the same compound, the inhibition in vivo at 100 mg/kg [6] was 43%, the “Reduction of cough, duration” value [11] was over 60 mm and the “Reduction of cough, intensity” value [11] was 100%.
In the case of `O=C(CN1CCN(CC2COC3(O2)c2ccccc2C=Cc2ccccc23)CC1)N1CCCC1` (centres unmarked) [compound 71562], the change in vivo at 50 mg/kg (urinary elimination) is reported as 70%, the Antagonisms against contractions of fundus of rat, DE50 [12] is reported as 0.1 µg/mL and the “Increase in the flow of the coronary vessels” value [13] is reported as 45%. The mortality ([4]; 2000 mg/kg/PO) was about 50%, the LD50 [4] was 2000 mg/kg and the ED50 [5] was 125 mg/kg. The inhibition in vivo at 100 mg/kg [6] was 47% and the “Reduction in the number of explorations in the escape enclosure” value [14] was 40%.
For `CCCNC(=O)CN1CCN(CC2COC3(O2)c2ccccc2C=Cc2ccccc23)CC1` (centres unmarked) [compound 72142], the change in vivo at 50 mg/kg (urinary elimination) was 55%, the “Potentialization of lethal effect of yohimbine” value [10] was 40% and the “DE50 (spasmolytic)” value [2] was 2.50 µg/mL. The ED50 [7] was 0.6 mg/kg, the “Antagonism … by reserpine” value ([3]; at 100 mg/kg/PO) was “Inactive” and the mortality ([4]; 1650 mg/kg/PO) was about 50%. The LD50 [4] was 1650 mg/kg, the ED50 [5] was 85 mg/kg and the inhibition in vivo at 100 mg/kg [6] was 70%. The “Antihistamine activity DE50” value [15] was 0.6 µg/mL and the “Reduction in the number of explorations in the escape enclosure” value [14] was 40%.
In the case of `CN1CCN(CC2COC3(O2)c2ccccc2C=Cc2ccccc23)CC1` (centres unmarked) [compound 72143], the change in vivo at 25 mg/kg (urinary elimination; 25 mg/kg/PO) is reported as 70%, the “Reduction of the Shay ulcer” value [1] is reported as 70% and the “DE50 (spasmolytic)” value [2] is reported as 3.75 µg/mL. The “Antagonism … by reserpine” value [3, 17] was “Inactive”, the mortality ([4]; 300 mg/kg/PO) was about 50% and the LD50 [4] was 300 mg/kg. For the same compound, the “Percentage reduction of the edema” value [16] was 70% and the “Antihistamine activity DE50” value [15] was 0.25 µg/mL.

— US4049660A, “N-substituted derivatives of 4 (N-piperazinylmethyl) spiro dibenzocycloheptadi- (or tri-) ene-5, 2-dioxolane (1,3) their method of preparation and their application in therapeutics” (Delalande S.A., priority 1971, dated 1977)
